Data from patent publication EP0417987B1, “Fabric softening” (UNILEVER PLC, priority 1989, dated 1991).
Structures can show the parent of a compound that is named as a salt.

What was measured:
[1] = pH of the rinse water after adding rinse conditioner to the last rinse cycle of a machine wash; format: physicochemical; settings: 90 mls rinse conditioner (about 200 ppm amine) in last rinse cycle
Method: (§1) The performance and stability of several amine containing liquid fabric softening compositions was tested as follows:
(§2) A wash load of 1.25 kg of terry towelling and 1.25 kg of cotton sheeting fabrics was washed at 40°C in a Miele 756 automatic with 100g of Persil Automatic (UK).

[2] = pH of the undiluted liquid rinse conditioner; settings: rinse conditioner 5wt% Armeen M2HT, 1wt% tallow 35EO
Method: as §1, §2

[3] = Stability of the undiluted liquid rinse conditioner; settings: rinse conditioner 5wt% Armeen M2HT, 1wt% tallow 35EO
Method: as §1, §2

[4] = pH adjuster conc 0.6 M in product
[5] = pH adjuster conc 0.9 M in product
[6] = pH adjuster conc 0.3 M in product
[7] = pH adjuster conc 0.5 M in product
[8] = pH adjuster conc 1.0 M in product
[9] = pH adjuster conc 0.4 M in product
[10] = pH adjuster conc 0.7 M in product

O=P(O)(O)O [o-H₃PO₄, orthophosphoric acid]
rinse pH [1, 4]: 5.6
rinse pH [1, 5]: 4.6
rinse pH ([1]; pH adjuster conc 1.2 M in product): 3.8
undiluted product pH ([2]; pH adjuster conc 0.6 M): 1.3
undiluted product pH ([2]; pH adjuster conc 1.2 M): 0.8

O=C(O)CC(O)(CC(=O)O)C(=O)O [Citric, citric acid]
rinse pH [1, 6]: 5.6
rinse pH [1, 7]: 4.5
rinse pH [1, 5]: 3.8

O=C(O)CCC(=O)O [Succinic, succinic acid]
undiluted product stability ([3]; pH adjuster conc 1.0 M): stable
undiluted product stability ([3]; pH adjuster conc 1.5 M): stable
rinse pH [1, 8]: 4.5
rinse pH ([1]; pH adjuster conc 1.5 M in product): 4.2
undiluted product pH ([2]; pH adjuster conc 1.0 M): 2.3
undiluted product pH ([2]; pH adjuster conc 1.5 M): 2.2

O=C(O)C(=O)O [Oxalic, Oxalic acid]
undiluted product stability ([3]; pH adjuster conc 0.6 M): unstable
rinse pH [1, 6]: 6.0
rinse pH [1, 9]: 4.8
rinse pH [1, 4]: 3.3
undiluted product pH ([2]; pH adjuster conc 0.6 M): 0.8

O=C(O)C(O)C(O)C(=O)O (centres unmarked) [Tartaric, tartaric acid]
rinse pH [1, 9]: 5.7
rinse pH [1, 7]: 4.5
rinse pH ([1]; pH adjuster conc 0.8 M in product): 3.9

O=C(O)CC(=O)O [Malonic, malonic acid]
undiluted product stability ([3]; pH adjuster conc 0.7 M): stable
rinse pH [1, 7]: 5.4
rinse pH [1, 10]: 4.7
rinse pH [1, 5]: 3.4
undiluted product pH ([2]; pH adjuster conc 0.7 M): 1.5

Cl [HCl]
rinse pH [1, 10]: 5.2
rinse pH [1, 5]: 4.4
rinse pH [1, 8]: 3.7
undiluted product pH ([2]; pH adjuster conc 0.7 M): 0.2
undiluted product pH ([2]; pH adjuster conc 1.0 M): 0.1
